Consider 1 molecule from patent publication US10689394B2, “Thieno[2,3-b]pyridine derivative, quinoline derivative, and use thereof” (The University of Tokyo, priority 2016, dated 2020).

Assay [1] has as its target T1, binding between ALS-related mutant SOD1 (Flag-SOD1 G93A) and Derlin-1 (Derlin-1-HA) (Homo sapiens, UniProt P00441+Q9BUN8, G94A).
T1 construct: expressed in transfected cells; host or cells: HEK293A
The experiment in a line: Cell-based co-immunoprecipitation assay of mutant SOD1 (G93A)-Derlin-1 binding. Also on record: key to Activity value (score): a compound exhibiting no inhibitory activity is set at 0; a compound exhibiting inhibitory activity is set at 1; a compound exhibiting significant inhibitory activity is set at 2; a compound having higher inhibitory activity than the compound of Example 1 is set at 3. As for the experimental part: As cells, human embryonic kidney-derived, Human Embryonic Kidney 293A (HEK293A) cells were used. The cells were cultured in High Glucose Dulbecco's modified Eagle's medium (DMEM: 4.5 mg/ml glucose, Sigma) supplemented with complement-inactivated 10% fetal bovine serum (FBS, Vitromex) and 100 units/mL Penicillin G (Meiji), which was placed in an incubator set at conditions of 37° C. and 5% CO2.
Transfection into the HEK293A cells was carried out using PEI-Max (Polyscience) at a ratio of 3 μL of PEI-Max to 1 μg of plasmid. DMEM was mixed with PEI-Max, and the mixture was then left at rest for 5 minutes. Thereafter, the reaction mixture was added to the plasmid DNA dissolved in DMEM, and the thus obtained mixture was further left at rest for 15 minutes. After seeding, the culture was carried out for 12 to 24 hours, and the resultant was then added to a culture medium of cells, in which the medium had been exchanged with DMEM supplemented only with 10% FBS.
pcDNA3.0-Derlin-1-HA, pcDNA3.0-Flag-SOD1 G93A, and 123 types of other mutants.
In the lysis of HEK293A cells for use in a co-immunoprecipitation experiment, an IP lysis buffer (20 mM Tris-HCl (pH 7.5), 150 mM NaCl, 10 mM EDTA (pH 8.0), 1% Triton-X 100, 5 μg/mL leupeptin, and 1 mM phenylmethylsulfonyl fluoride) was used.
After the transfection on a 24-well plate, the cells were cultured for 12 hours or 24 hours, and the obtained cell culture was exchanged with 200 μL of medium. Thereafter, 1% DMSO or various types of compounds having each different concentration were added into the culture. Thirty-six hours or twenty-four hours later, the cells were incubated in the IP lysis buffer (300 μL/well) at 4° C. for 25 minutes, so that the cells were lysed. The cell lysate was centrifuged at 4° C. at 15000 rpm for 10 minutes, and a supernatant was then recovered. To this supernatant, Anti-Flag M2 affinity gel was added in a liquid amount of 20 μL, and they were allowed to react with each other by subjecting the obtained mixture to inversion mixing at 4° C. for 25 minutes. After completion of the reaction, a supernatant was removed, and the residue was washed twice with High salt wash buffer (1% Triton X 100, 500 mM NaCl, 20 mM Tris-HCl (pH 7.5), and 5 mM EGTA), and was then washed once with Low salt wash buffer (150 mM NaCl, 20 mM Tris-HCl (pH 7.5), and 5 mM EGTA). Finally, 50 μL of a 2×SDS sample buffer was added to the resultant, and the obtained mixture was then boiled at 98° C. for 3 minutes to obtain an SDS-PAGE sample. Regarding the lysate, a 2×SDS sample buffer was added in an amount equal to the supernatant, and the obtained mixture was then boiled at 98° C. for 3 minutes to obtain an SDS-PAGE sample.
After completion of SDS-PAGE, a protein was transferred from the gel into a polyvinylidene difluoride membrane (PVDF) ([…], Pall), and was then blocked with TBS-T (150 mM NaCl, 50 mM Tris-HCl (pH 8.0), and 0.05% Tween 20) supplemented with 5% skimmed milk at room temperature for 2 hours or more. Thereafter, a primary antibody diluted with TBS-T supplemented with 5% bovine serum albumin and 0.1% NaN3 was allowed to bind to each molecule on the PVDF membrane at 4° C. for 12 hours or more. After completion of the reaction, a secondary antibody (HRP-linked 2nd antibody) diluted with TBS-T supplemented with 5% skimmed milk was allowed to bind to the primary antibody at room temperature for 1 hour. Thereafter, the resultant was washed with TBS-T for 15 minutes, 3 or more times, and detection was then carried out using an enhanced chemiluminescence (ECL) system.
With regard to the compounds of the present invention (Example Compound 1 to Example Compound 47), whether or not the present compound can inhibit the binding between ALS-related mutant SOD1 and Derlin-1 in a cell by being added into a cell culture solution was examined according to a co-immunoprecipitation experiment. […]

The target of assay [2] is T2, complex formation by Derlin-1 (Homo sapiens, UniProt Q9BUN8).
T2 sequence (Q9BUN8 1-251): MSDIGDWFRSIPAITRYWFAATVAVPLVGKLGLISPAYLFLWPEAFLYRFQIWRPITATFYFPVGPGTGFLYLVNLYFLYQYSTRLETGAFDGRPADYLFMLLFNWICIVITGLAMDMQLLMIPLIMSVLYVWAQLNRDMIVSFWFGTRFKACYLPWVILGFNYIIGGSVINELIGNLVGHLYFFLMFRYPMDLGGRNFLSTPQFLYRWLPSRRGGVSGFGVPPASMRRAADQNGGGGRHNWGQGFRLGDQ
Kind of assay: Inhibition of complex formation by Derlin-1. Conditions: under conditions for inhibiting the binding between mutant SOD1 and Derlin-1. Type of assay: cell-based. The text has this: (§1) In the above-described SOD1-Derlin-1-binding inhibition experiment, SOD1 G93A that is a representative mutant SOD1 associated with the onset of the pathologic conditions of ALS was used. According to previous studies, however, it has become clear that 122 types of ALS-related mutant SOD1s bind to Derlin-1 (Fujisawa et al., Ann Neurol 72, 739-749, (2012)).

Another assay has as its target dimerization of SOD1 (Homo sapiens, UniProt P00441). The experiment in a line: Inhibition of dimerization of SOD1. Type of assay: cell-based. Conditions: under conditions for inhibiting the binding between mutant SOD1 and Derlin-1.
Source text: as §1

Each structure is given as a SMILES string.

T1 sequence (P00441 whole entry G94A, species assumed, one chain of several): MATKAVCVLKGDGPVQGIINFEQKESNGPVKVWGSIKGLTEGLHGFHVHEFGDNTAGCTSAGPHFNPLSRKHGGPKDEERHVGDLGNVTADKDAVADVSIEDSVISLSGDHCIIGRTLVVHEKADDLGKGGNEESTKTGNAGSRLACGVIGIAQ
dimerization of SOD1, sequence (P00441 whole entry): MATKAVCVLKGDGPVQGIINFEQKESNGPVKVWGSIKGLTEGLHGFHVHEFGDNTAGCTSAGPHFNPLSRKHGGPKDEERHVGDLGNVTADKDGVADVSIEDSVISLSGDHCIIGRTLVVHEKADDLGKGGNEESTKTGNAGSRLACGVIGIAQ

For `C=CCN(C(=O)c1sc2nc(-c3cccnc3)ccc2c1N)c1ccccc1` [Example 1, N-allyl-3-amino-N-phenyl-6-(3-pyridinyl)thieno[2,3-b]pyridine-2-carboxamide], the “binding between mutant SOD1 and Derlin-1 (co-precipitated Derlin-1, IB:HA band)” value in assay [1] (5 μM, 10 μM and 20 μM added to HEK293A cell culture, FIG. 1) was “the binding between mutant SOD1 and Derlin-1 was inhibited”. Moreover, the “Activity value (score)” value in assay [1] (assay concentration 20 μM, HEK293A cells overexpressing Flag-SOD1 G93A and Derlin-1-HA) worked out at 2. Moreover, the “inhibitory activity on complex formation by Derlin-1” value in assay [2] is “did not exhibit inhibitory activity”. Further, on dimerization of SOD1, the “inhibitory activity on dimerization of SOD1” value is “did not exhibit inhibitory activity”.
